Experimental data from the NIST ThermoML archive (doi:10.1021/acs.jced.8b01120).

Test: xn = mol fraction of the nth substance listed
Conditions: 100 kPa, Liquid; for speed of sound: Single path-length method; for mass density: Vibrating tube method

CCCCCOC(C)=O [pentyl ethanoate] + CCCCN(CCCC)CCCC
Conditions | mass density, 293.15 K [kg/m3] | mass density, 298.15 K [kg/m3] | mass density, 303.15 K [kg/m3] | mass density, 308.15 K [kg/m3] | mass density, 313.15 K [kg/m3] | speed of sound, 293.15 K [m/s] | speed of sound, 298.15 K [m/s] | speed of sound, 303.15 K [m/s] | speed of sound, 308.15 K [m/s] | speed of sound, 313.15 K [m/s]
x2 = 0 | 876.248 | 871.32 | 865.782 | 860.581 | 855.357 | 1243 | 1220.7 | 1196.8 | 1174.2 | 1152.3
x2 = 0.0575 | 865.692 | 860.668 | 855.073 | 849.94 | 844.475 | 1244.2 | 1221.5 | 1197.8 | 1175.7 | 1153.7
x2 = 0.1106 | 856.436 | 851.526 | 846.117 | 841.075 | 835.813 | 1245.2 | 1222.5 | 1198.8 | 1177.2 | 1155.7
x2 = 0.2013 | 842.712 | 837.942 | 832.841 | 827.884 | 823.003 | 1247.7 | 1224.3 | 1201.8 | 1179.7 | 1158.8
x2 = 0.3229 | 827.693 | 823.116 | 818.312 | 813.425 | 808.951 | 1249.6 | 1227.8 | 1205.4 | 1184.1 | 1163.1
x2 = 0.4109 | 818.21 | 813.799 | 809.136 | 804.737 | 800.073 | 1251.4 | 1229.9 | 1207.8 | 1187.2 | 1167.2
x2 = 0.5032 | 809.565 | 805.278 | 800.772 | 796.389 | 791.981 | 1253.8 | 1232.5 | 1210.5 | 1190.4 | 1170
x2 = 0.6202 | 799.842 | 795.692 | 791.362 | 787.138 | 782.852 | 1255.6 | 1235 | 1214.6 | 1194.1 | 1174.1
x2 = 0.7403 | 791.114 | 787.079 | 782.913 | 778.804 | 774.698 | 1258.8 | 1238.5 | 1217.8 | 1198.2 | 1178.9
x2 = 0.8105 | 786.994 | 782.989 | 778.908 | 774.712 | 770.827 | 1259.7 | 1240.2 | 1219.9 | 1201 | 1181.2
x2 = 0.9205 | 780.619 | 776.717 | 772.741 | 768.959 | 764.799 | 1262.4 | 1243.1 | 1223 | 1204.5 | 1185.6

CCCCN(CCCC)CCCC [tributylamine] + CCCCOC(C)=O
Conditions | mass density, 293.15 K [kg/m3] | mass density, 298.15 K [kg/m3] | mass density, 303.15 K [kg/m3] | mass density, 308.15 K [kg/m3] | mass density, 313.15 K [kg/m3] | speed of sound, 293.15 K [m/s] | speed of sound, 298.15 K [m/s] | speed of sound, 303.15 K [m/s] | speed of sound, 308.15 K [m/s] | speed of sound, 313.15 K [m/s]
x1 = 0.0535 | 870.397 | 865.288 | 860.118 | 854.99 | 849.73 | 1214 | 1193.8 | 1175.2 | 1156 | 1132.7
x1 = 0.11 | 859.603 | 854.617 | 849.591 | 844.604 | 839.544 | 1217.1 | 1196.9 | 1178.2 | 1158.9 | 1135.7
x1 = 0.2003 | 844.278 | 839.544 | 834.725 | 829.963 | 825.128 | 1221.8 | 1201.9 | 1183.5 | 1163.8 | 1141.7
x1 = 0.3239 | 827.789 | 823.24 | 818.635 | 814.11 | 809.428 | 1228.3 | 1208.9 | 1189.5 | 1170.4 | 1148.8
x1 = 0.4004 | 818.98 | 814.604 | 810.171 | 805.768 | 801.312 | 1232.5 | 1212.3 | 1193.6 | 1174.4 | 1153.5
x1 = 0.502 | 809.109 | 804.828 | 800.541 | 796.282 | 791.968 | 1237.7 | 1217.4 | 1199.2 | 1180.1 | 1158.9
x1 = 0.592 | 801.571 | 797.439 | 793.26 | 789.105 | 784.862 | 1242.4 | 1222.7 | 1203.4 | 1185.3 | 1164.7
x1 = 0.7201 | 792.16 | 788.147 | 784.362 | 780.344 | 775.931 | 1249.1 | 1229.7 | 1210.9 | 1192 | 1171.8
x1 = 0.8002 | 787.449 | 783.513 | 779.542 | 775.588 | 771.559 | 1253.5 | 1233.7 | 1215 | 1195.9 | 1176.6
x1 = 0.9065 | 781.614 | 777.793 | 773.938 | 770.069 | 766.156 | 1259.1 | 1240 | 1220.6 | 1201.7 | 1183.1
x1 = 1 | 777.006 | 773.28 | 769.552 | 765.811 | 762.061 | 1264.2 | 1245.2 | 1226.2 | 1207.4 | 1188.8
